In patent publication US20230331720A1, “MEDIUM- OR MACRO-CYCLIC BENZYL-SUBSTITUTED HETEROCYCLE DERIVATIVES AND THEIR USES AS OREXIN-2 RECEPTOR AGONISTS” (Orexia Therapeutics Limited, priority 2020, published 2023):
Like-named read-outs stand apart in the source and are kept apart here. One block for each compound: values may come before it.

Columns and labels:
[1] = not given; remark: listed apart in the source
[2] = target: T1, human orexin type 2 receptor (hOX2R) (Homo sapiens, UniProt O43614); experiment: Orexin type 2 receptor agonist activity, intracellular Ca2+ (FLIPR TETRA); type: cell-based; settings: CHO cells expressing hOX2R; Ca2+ fluorescence area; read-out: hOx2 pEC50 (converted)
T1 construct: expressed in transfected cells
T1 sequence (O43614 1-444): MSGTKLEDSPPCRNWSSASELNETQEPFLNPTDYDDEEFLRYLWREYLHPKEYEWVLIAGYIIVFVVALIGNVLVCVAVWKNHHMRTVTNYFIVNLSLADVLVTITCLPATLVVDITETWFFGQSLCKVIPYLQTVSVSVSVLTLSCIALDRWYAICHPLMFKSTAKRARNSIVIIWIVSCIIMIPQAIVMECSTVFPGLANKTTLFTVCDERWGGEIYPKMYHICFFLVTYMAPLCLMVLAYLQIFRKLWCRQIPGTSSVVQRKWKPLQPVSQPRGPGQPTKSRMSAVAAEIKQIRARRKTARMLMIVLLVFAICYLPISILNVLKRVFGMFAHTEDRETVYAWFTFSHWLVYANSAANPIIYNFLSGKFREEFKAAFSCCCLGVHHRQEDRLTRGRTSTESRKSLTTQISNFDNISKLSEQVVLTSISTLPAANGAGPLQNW
Procedure: Stable cell line generation. Obtainment of cells stably expressing either human orexin type 2 or human orexin type 1 receptor; to obtain a stable cell line the Orexin receptor cDNA was inserted into pcDNA3.1(+) plasmid vector and clones identified by G418 drug resistance selection. […] A single clone for OX2R-CHO and OX1R-CHO were grown in bulk and frozen to generate a cell bank for routine screening.
Measurement of orexin type 2 receptor agonist activity. Chinese hamster ovary (CHO) cells expressing human orexin type 2 receptor (hOX2R) or human orexin type 1 receptor (hOX1R) were seeded in each well of 384 well black clear bottom plates (BD Flacon) at 10,000 cells per well and cultured for 24 hr in an Ham's F12 (Gibco) medium containing 10% fetal calf serum (Sigma Aldrich) under the conditions of 37° C., 5% CO2. After removal of the medium, 50 μl of assay buffer 1 (0.1% bovine serum albumin (Sigma Aldrich), 20 mM HEPES (Molecular Dimensions), […] probenecid (Sigma Aldrich), 1× Calcium 5 dye (Molecular Devices) in Hank's balanced salt solution (Invitrogen)) was added, and the cells were incubated for 60 min under the conditions of 37° C., 5% CO2. A test compound was dissolved in dimethyl sulfoxide (Sigma Aldrich) to 10 mM, and then diluted with assay buffer 2 (20 mM HEPES, Hank's balanced salt solution, 0.1% bovine serum albumin). For the reaction, a test compound solution (10 μl) was added using Fluorescent Imaging Plate Reader TETRA (FLIPR TETRA: manufactured by Molecular Devices), a fluorescence value (excitation wavelength 488 nm, measurement wavelength 570 nm) of each well was measured every one second for 2 min, and the agonist activity was determined using the area of the fluorescence value as an indicator of intracellular Ca^2+ concentration. The agonist activity of the test compound was calculated assuming that the fluorescence value of the well added with only the dilution buffer was 0% and the fluorescence value of the well added with 10 nM human orexin A (Tocris) buffer was 100%. As used herein, Emax indicates the value at 10 μM concentration when orexin A is converted to a full agonist (maximum value of agonist activity: 100%).

[3] = amide bond, 13-membered ring, HATU/DIEA, DMF, 10.0 mM, 25.0 °C

Compound: CN(C)S(=O)(=O)NC1CCCN2C(=O)CCOc3ccccc3-c3cccc(c3)CC12 (centres unmarked)
ring closure, yield after HPLC (from CN(C)S(=O)(=O)NC1CCCNC1Cc1cccc(-c2ccccc2OCCC(=O)O)c1, amide bond, 12-membered ring, HATU/DIEA, DMF, 0.4 mM, 20.0 °C, 12.0 h): 29.9%

Compound: O=C1CCCN2C(=O)CCOc3cccc(F)c3-c3cccc(c3)CC12 (centres unmarked)
ring closure, isolated yield ([1]; from O=C(O)CCOc1cccc(F)c1-c1cccc(CC2NCCCC2=O)c1, amide bond, 12-membered ring, HATU/DIEA, DMF, 0.49 mM, 25.0 °C, 12.0 h): 27.7%

Compound: O=C1CCCN2C(=O)CCOc3ccccc3-c3cc(ccc3F)CC12 (centres unmarked)
ring closure, isolated yield ([1]; from O=C(O)CCOc1ccccc1-c1cc(CC2NCCCC2=O)ccc1F, amide bond, 12-membered ring, HATU/DIEA, DMF, 0.54 mM, 25.0 °C, 12.0 h): 28.4%

EC50 [2]: 10 to 100 nM
Compound: C[C@H]1COc2ccccc2-c2cccc(c2)C[C@H]2[C@@H](NS(C)(=O)=O)CCCN2C1=O [Compound A1-85]

EC50 [2]: 1 to 10 nM
Compound: COc1c2cccc1-c1ccccc1OCCN(C)C(=O)N1C[C@H](F)[C@H](NS(=O)(=O)CF)[C@@H]1C2 [Compound A1-86]

EC50 [2]: 1 to 10 nM
Compound: O=C1CCOc2ccccc2-c2cc(ccc2F)C[C@H]2[C@@H](NS(=O)(=O)CF)CCCN12 [Compound A1-87, 1-fluoro-N-((4^2S,4^3S)-26-fluoro-5-oxo-8-oxa-4(2,1)-piperidina-1(1,2),2(1,3)-dibenzenacyclooctaphane-4^3-yl)methanesulfonamide]

EC50 [2]: 10 to 100 nM
Compound: COc1c2cccc1-c1ccccc1OCCNC(=O)N1C[C@H](F)[C@H](NS(=O)(=O)CF)[C@@H]1C2 [Compound A1-88]

EC50 [2]: 10 to 100 nM
Compound: O=C1CCOc2cccc(F)c2-c2cccc(c2)C[C@H]2[C@@H](NS(=O)(=O)CF)CCCN12 [Compound A1-89, 1-fluoro-N-((4^2S,4^3S)-16-fluoro-5-oxo-8-oxa-4(2,1)-piperidina-1(1,2),2(1,3)-dibenzenacyclooctaphane-4^3-yl)methanesulfonamide]

EC50 [2]: 0.1 to 1 nM
Compound: O=C1CCOc2c(F)cccc2-c2cccc(c2)C[C@H]2[C@@H](NS(=O)(=O)CF)CCCN12 [Compound A1-90, 1-fluoro-N-((4^2S,4^3S)-13-fluoro-5-oxo-8-oxa-4(2,1)-piperidina-1(1,2),2(1,3)-dibenzenacyclooctaphane-4^3-yl)methanesulfonamide]

EC50 [2]: 1 to 10 nM
Compound: O=C1CCOc2ccc(F)cc2-c2cccc(c2)C[C@H]2[C@@H](NS(=O)(=O)CF)CCCN12 [Compound A1-91, 1-fluoro-N-((4^2S,4^3S)-15-fluoro-5-oxo-8-oxa-4(2,1)-piperidina-1(1,2),2(1,3)-dibenzenacyclooctaphane-4^3-yl)methanesulfonamide]

EC50 [2]: 1 to 10 nM
Compound: CN1CCOc2ccccc2-c2cccc(c2F)C[C@H]2[C@@H](NS(=O)(=O)CF)[C@@H](F)CN2C1=O [Compound A1-92, N-((4^2S,4^3R,4^4S)-2^2,4^4-difluoro-6-methyl-5-oxo-9-oxa-6-aza-4(2,1)-pyrrolidina-1(1,2),2(1,3)-dibenzenacyclononaphane-4^3-yl)-1-fluoromethanesulfonamide]

EC50 [2]: 1 to 10 nM
Compound: CN1CCOc2ccccc2-c2cccc(c2)C[C@H]2[C@@H](NS(=O)(=O)C(F)F)C3(CC3)CN2C1=O [Compound A1-95, 1,1-difluoro-N-((2′S,3′S)-6′-methyl-5′-oxospiro[cyclopropane-1,4′-9-oxa-6-aza-4(2,1)-pyrrolidina-1(1,2),2(1,3)-dibenzenacyclononaphan]-3′-yl)methanesulfonamide]

EC50 [2]: 10 to 100 nM
Compound: O=C1CCOc2ccccc2-c2cccc(c2F)C[C@H]2[C@@H](NS(=O)(=O)C(F)F)[C@@H](F)CN12 [Compound A1-96]

EC50 [2]: 10 to 100 nM
Compound: O=C1CCOc2ccccc2-c2cc(F)cc(c2F)C[C@H]2[C@@H](NS(=O)(=O)CF)CCCN12 [Compound A1-97]

EC50 [2]: 0.1 to 1 nM
Compound: O=C1CCOc2ccccc2-c2cccc(c2F)C[C@H]2[C@@H](NS(=O)(=O)C(F)F)CCCN12 [Compound A1-98]

EC50 [2]: 10 to 100 nM
Compound: O=C1CCOc2ccccc2-c2cccc(c2)C[C@H]2[C@@H](NS(=O)(=O)CF)C3(CC3)CN12 [Compound A1-99]

EC50 [2]: 1 to 10 nM
Compound: CCS(=O)(=O)N[C@H]1CCCN2C(=O)CCOc3ccccc3-c3cccc(c3F)C[C@@H]12 [Compound A1-100]

EC50 [2]: 10 to 100 nM
Compound: O=C1CCOc2ccccc2-c2cccc(c2F)C[C@H]2[C@@H](NS(=O)(=O)CF)CCCN12 [Compound A1-102]

Compound: N-(1^3,1^5-difluoro-5-oxo-4(2,1)-pyrrolidina-1(1,2),2(1,3)-dibenzenacyclo-undecaphane-4^3-yl)ethanesulfonamide_cis racemic
ring closure, yield after HPLC (amide bond, 15-membered ring, HATU/DIEA, DCM, 11.7 mM, 25.0 °C): 8%

Compound: N-(1^3,1^5-difluoro-5-oxo-6-aza-4(2,1)-pyrrolidina-1-(1,2),2-(1,3)-dibenzena-cycloundecaphane-4^3-yl)ethanesulfonamide_cis racemic
ring closure, yield after HPLC (crosslinker bond, 15-membered ring, CDI/DIEA, DMF, 52.5 mM, 25.0 °C): 11%

Compound: N-(5-oxo-4(2,1)-piperidina-1(1,2),2(1,3)-dibenzenacyclononaphane-4^3-yl)-methanesulfonamide_cis racemic
ring closure, isolated yield ([1]; amide bond, 13-membered ring, HATU/DIEA, DMF, 9.9 mM, 25.0 °C): 27%

Compound: N-(5-oxo-4(2,1)-piperidina-1(1,2),2(1,3)-dibenzenacycloundecaphane-4^3-yl)methanesulfonamide_cis racemic
ring closure, isolated yield ([1]; amide bond, 15-membered ring, HATU/DIEA, DMF, 8.9 mM, 25.0 °C): 67%

Compound: N-(5-oxo-6,9-dioxa-4(2,1)-pyrrolidina-1(1,2),2(1.3)-dibenzenacyclo-nonaphane-4^3-yl)ethanesulfonamide_cis racemic
ring closure, yield after HPLC (crosslinker bond, 13-membered ring, CDI/DIEA, DMF, 10.0 mM, 80.0 °C): 22%

Compound: N-(5-oxo-6-aza-4(2,1)-piperidina-1(1,2),2(1.3)-dibenzenacyclo-undecaphane-4^3-yl)methanesulfonamide_cis racemic
ring closure, isolated yield ([1]; crosslinker bond, 15-membered ring, CDI/DIEA, DMF, 10.0 mM, 70.0 °C): 23%

Compound: N-(5-oxo-9-oxa-4(2,1)-piperidina-1(1,2),2(1,3)-dibenzenacyclononaphane-4^3-yl)methanesulfonamide_cis racemic
ring closure, isolated yield [1, 3]: 38%

Compound: N-(5-oxo-9-oxa-4(2,1)-pyrrolidina-1(1.2),2(1,3)-dibenzenacyclo-nonaphane-4^3-yl)ethanesulfonamide_cis racemic
ring closure, isolated yield [1, 3]: 49%

Compound: N-(5-oxo-9-oxa-6-aza-4(2,1)-piperidina-1(1,2),2(1,3)-dibenzenacyclo-nonaphane-4^3-yl)methanesulfonamide_cis racemic
ring closure, isolated yield ([1]; crosslinker bond, 13-membered ring, CDI/DIEA, DMF, 97.5 mM, 70.0 °C): 23%

Compound: N-(5-oxo-12-oxa-6-aza-4(2,1)-pyrrolidina-1(1,2),2(1,3)-dibenzenacyclo-dodeca phane-43-yl)ethanesulfonamide_cis racemic
ring closure, isolated yield ([1]; crosslinker bond, 16-membered ring, CDI/DIEA, THF/DMF 4:1, 10.0 mM, 70.0 °C): 38%

Compound: N-(5-oxo-12-phenyl-2,3,5,6,7,8,9,10,16,16a-decahydro-1H-benzo[b]pyrrolo[2,1-e][1]oxa[6]azacyclododecin-1-yl)ethanesulfonamide_cis racemic
ring closure, yield after HPLC (ether bond, 12-membered ring, K2CO3, DMF, 10.7 mM, 80.0 °C): 10%

Compound: N-(6-methyl-5-oxo-9-oxa-6-aza-4(2,1)-piperidina-1(1,2),2(1,3)-dibenzena-cyclo-nonaphane-4^3-yl)methanesulfonamide_cis racemic
ring closure, yield after HPLC (crosslinker bond, 13-membered ring, triphosgene/DIEA, DCM, 8.5 mM, 25.0 °C): 3%

Compound: N-((4^2,4^3S)-5-oxo-8-oxa-4(2,1)-piperidina-1(1,2),2(1.3)-dibenzenacyclo-octaphane-4^3-yl)ethanesulfonamide
ring closure, yield after HPLC (amide bond, 12-membered ring, HATU/DIEA, DMF, 2.24 mM, 25.0 °C): 29.4%

Compound: N-((4^2S,4^3S)-5-oxo-4(2,1)-piperidina-1(1,2),2(1,3)-dibenzenacyclooctaphane-4^3-yl)methanesulfonamide
ring closure, isolated yield ([1]; amide bond, 12-membered ring, HATU/DIEA, DMF, 6.5 mM): 6%
